Measured values from patent US20180207294A1, “NON-ALCOHOLIC FATTY LIVER REGULATING FACTOR 14-3-3 PROTEIN” (Korea University Research and Business Foundation, priority 2015, published 2018).

Tests used:
HepG2 cells [1] = test: Triglyceride colorimetric assay, HepG2 cells; type: cell-based; settings: 14-3-3 overexpression, 200 μM oleic acid 72 hours, FIG. 10A
Procedure: (§1) A triglyceride (neutral fat) is a type of fatty acid and is used as an index of a fat content. A biochemical lipid test was carried out by measuring an amount of triglycerides. HepG2 cells and primary mouse hepatocytes were separately seeded in a 6-well plate at a density of 4×10^5 cells per each well, and then transfected with GFP-14-3-3β DNA (1 μg) or GFP-14-3-3γ DNA (1 μg) and si-14-3-3β (10 μM, Santa Cruz) or si-14-3-3γ (10 μM, Santa Cruz) using an E-fection plus reagent (Lugen). A ratio of DNA to the E-fection plus reagent was 1:2, and this method was performed according to a manufacturer's manual. After transfection, the cells were treated with 200 μM of oleic acid (OA) for 72 hours, and the amount of triglycerides was measured using a triglyceride colorimetric assay kit (Cayman Chemical). The corresponding cells were washed with ice-cold PBS and then scraped using a standard diluent assay reagent, the scrapping process was repeated using a sonicator 20 times to lyse the cells, and the lysed cells were reacted with an enzyme buffer solution for 15 minutes, followed by measurement using an ELISA reader (Bio-Rad Laboratories, Inc) at a wavelength of 550 nm.

PPARγ2 deletion mutants [2] = target: T1, PPARγ2 deletion mutants (Homo sapiens, UniProt P37231); test: GST-pull down assay with PPARγ2 deletion mutants (HEK-293T); type: binding; settings: FIG. 3B, 3C
T1 construct: expressed in transfected cells; host or cells: HEK-293T
T1 sequence (P37231 139-505): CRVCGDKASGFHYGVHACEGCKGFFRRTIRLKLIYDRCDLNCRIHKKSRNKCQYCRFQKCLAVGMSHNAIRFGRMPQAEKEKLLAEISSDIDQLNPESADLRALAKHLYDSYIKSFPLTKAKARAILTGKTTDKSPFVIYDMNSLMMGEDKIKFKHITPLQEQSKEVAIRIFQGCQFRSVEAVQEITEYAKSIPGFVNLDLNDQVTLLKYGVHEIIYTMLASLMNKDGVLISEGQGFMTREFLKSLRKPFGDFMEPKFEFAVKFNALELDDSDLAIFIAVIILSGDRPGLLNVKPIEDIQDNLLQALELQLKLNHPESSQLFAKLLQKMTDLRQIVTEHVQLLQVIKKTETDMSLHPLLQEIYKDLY
Procedure: (§2) The PPARγ2 protein has been reported to consist of an activation function 1 (AF-1, amino acids 1-138) domain, a DNA-binding domain (DBD, amino acids 139-203), a hinge region (amino acids 204-310), and an activation function 2 (AF-2, amino acids 311-505) domain (see FIG. 3A). Thus, GST-pull down assay was conducted to verify which domain part of PPARγ2 was bound to 14-3-3β and 14-3-3γ.
(§3) HEK-293T cells were seeded in a 100 mm plate at a density of 2×10^6 cells per each well, and then transfected with Flag-PPARγ2 (1-505) DNA (4 μg), Flag-PPARγ2 (1-310) DNA (4 μg), Flag-PPARγ2 (139-505) DNA (4 μg), and mGST-14-3-3β (4 μg) or mGST-14-3-3γ (4 μg) using an E-fection plus reagent (Lugen). For Flag-PPARγ2 (1-310) DNA and Flag-PPARγ2 (139-505) DNA, DNA fragments amplified through polymerase chain reaction (PCR) were cloned into a pCMV-3Tag-1 vector using restriction enzymes Xhol and Apal. A ratio of DNA to the E-fection plus reagent was 1:2, and this method was performed according to a manufacturer's manual. The corresponding cells were washed with ice-cold PBS and lysed using 500 μl/well of a lysis buffer (150 mM NaCl, 1 mM EDTA, 1% Nonidet P-40, 5% glycerol, 25 mM tris-HCl, pH 7.5, protease inhibitor added), and the lysed cells were centrifuged at 10,000×g and 4° C. for 10 minutes to extract proteins. Thereafter, 1,000 μg of the proteins was reacted with 20 μl of glutathione Sepharose 4B beads (GE Healthcare, Buckinghamshire, UK) for 6 hours, and then washing of the beads with 1 ml of ice-cold PBS was repeated 5 times, and the beads were boiled at 100° C. for 10 minutes, followed by 10% SDS-PAGE gel separation and western blotting. A ratio of GST antibodies (Santa Cruz) to Flag antibodies (Santa Cruz) was 1:3000. The detection of each protein was performed using West Pico ECL (Thermo scientific, Rockford, Ill.) and identified in a darkroom.

PPARγ2 deletion mutants [3] = target: T2, PPARγ2 deletion mutants (Homo sapiens, UniProt P37231); test: as above; type: binding; settings: FIG. 3B, 3C; remark: listed apart in the source
T2 construct: expressed in transfected cells; host or cells: HEK-293T
T2 sequence (P37231 1-310): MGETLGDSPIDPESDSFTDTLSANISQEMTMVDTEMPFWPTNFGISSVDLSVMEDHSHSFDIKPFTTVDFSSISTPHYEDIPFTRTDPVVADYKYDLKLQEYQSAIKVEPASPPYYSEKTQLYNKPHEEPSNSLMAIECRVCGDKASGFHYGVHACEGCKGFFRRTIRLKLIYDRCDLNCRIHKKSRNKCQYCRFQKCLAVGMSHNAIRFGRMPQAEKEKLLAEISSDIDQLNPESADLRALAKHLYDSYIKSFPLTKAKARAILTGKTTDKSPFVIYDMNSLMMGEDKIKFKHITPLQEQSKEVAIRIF
Procedure: as §2, §3

HepG2 cells [4] = test: Oil Red-O lipid accumulation, HepG2 cells; type: cell-based; settings: 14-3-3 overexpression, 200 μM oleic acid 72 hours, FIG. 9B
Procedure: HepG2 cells and primary mouse hepatocytes were separately seeded in a 6-well plate at a density of 4×10^5 cells per each well, and then transfected with GFP-14-3-3β DNA (1 μg) or GFP-14-3-3γ DNA (1 μg) and si-14-3-3β (10 μM, Santa Cruz) or si-14-3-3γ (10 μM, Santa Cruz) using an E-fection plus reagent (Lugen). A ratio of DNA to the E-fection plus reagent was 1:2, and this method was performed according to a manufacturer's manual. […] The stained cells were bleached with 1 ml of isopropanol and analyzed at a wavelength of 550 nm using a DU530 spectrophotometer (Beckman Instruments, Palo Alto, Calif.).

[5] = system: primary mouse hepatocytes; test: Triglyceride colorimetric assay, primary mouse hepatocytes; type: cell-based; settings: primary mouse hepatocytes; 14-3-3 overexpression; 200 μM oleic acid 72 hours; FIG. 10A
Procedure: as §1

14-3-3β: 14-3-3 isoform protein, overexpressed by DNA transfection; regulating factor that increases transcriptional activity of PPARγ2
triglyceride accumulation (HepG2 cells [1]): further increased | binding to PPARγ2 deletion mutant (139-505) (PPARγ2 deletion mutants [2]): bound | binding to PPARγ2 deletion mutant (1-310) (PPARγ2 deletion mutants [3]): bound | lipid accumulation by oleic acid (Oil Red-O) (HepG2 cells [4]): increased lipid accumulation | triglyceride accumulation [5]: further increased

14-3-3γ: 14-3-3 isoform protein, overexpressed by DNA transfection; regulating factor that decreases transcriptional activity of PPARγ2
triglyceride accumulation (HepG2 cells [1]): reduced triglyceride accumulation | binding to PPARγ2 deletion mutant (139-505) (PPARγ2 deletion mutants [2]): bound | binding to PPARγ2 deletion mutant (1-310) (PPARγ2 deletion mutants [3]): bound | lipid accumulation by oleic acid (Oil Red-O) (HepG2 cells [4]): reduced lipid accumulation | triglyceride accumulation [5]: reduced triglyceride accumulation
